Values of other authors in paper PMC5752104 (Bioorganic & medicinal chemistry, 2017).

Tests used:
GPR55 = GPR55 (Homo sapiens, UniProt Q9Y2T6)
GPR55, sequence (Q9Y2T6 whole entry): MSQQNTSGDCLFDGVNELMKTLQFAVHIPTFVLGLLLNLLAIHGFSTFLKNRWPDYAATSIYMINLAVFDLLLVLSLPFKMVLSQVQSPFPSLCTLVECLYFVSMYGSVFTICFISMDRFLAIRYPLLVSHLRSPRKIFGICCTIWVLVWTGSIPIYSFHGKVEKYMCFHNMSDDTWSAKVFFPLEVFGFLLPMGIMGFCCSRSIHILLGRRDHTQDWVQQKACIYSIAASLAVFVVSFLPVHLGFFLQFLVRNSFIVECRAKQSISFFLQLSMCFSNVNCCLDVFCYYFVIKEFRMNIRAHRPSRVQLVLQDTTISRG
GPR55, sequence (P32121 whole entry partner): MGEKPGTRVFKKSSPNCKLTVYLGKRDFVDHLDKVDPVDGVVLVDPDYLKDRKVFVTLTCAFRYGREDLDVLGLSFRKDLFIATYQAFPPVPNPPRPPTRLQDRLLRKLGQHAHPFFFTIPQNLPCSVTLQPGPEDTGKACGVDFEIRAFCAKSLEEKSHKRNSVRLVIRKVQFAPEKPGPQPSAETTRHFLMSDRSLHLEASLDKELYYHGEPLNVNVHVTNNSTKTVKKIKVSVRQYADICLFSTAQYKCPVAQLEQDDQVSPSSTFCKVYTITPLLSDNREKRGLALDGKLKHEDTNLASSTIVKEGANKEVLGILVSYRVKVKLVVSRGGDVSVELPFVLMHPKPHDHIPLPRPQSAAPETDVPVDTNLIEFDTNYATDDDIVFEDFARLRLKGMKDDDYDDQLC

CCCCCCC(C)(C)c1ccc([C@@H]2C[C@H](O)CC[C@H]2CCCO)c(O)c1 [CP55940]
effect at GPR55 (GPR55): acts as an antagonist

COc1ccccc1/C=C/C(=O)NC(=S)Nc1ccc(S(=O)(=O)N(C)c2ccccc2)cc1 [6fv, (E)-3-(2-Methoxyphenyl)-N-((4-(N-methyl-N-phenylsulfamoyl)phenyl)carbamothioyl)acrylamide]
activity at CB1 (CB1): no activity | activity at CB2 (CB2): no activity | activity at GPR35 (GPR35): no activity

Cc1c(C(=O)NN2CCCCC2)nn(-c2ccc(Cl)cc2Cl)c1-c1ccc(I)cc1 [AM251]
effect at GPR55 (GPR55): strongly activates GPR55
